We go through 3 compounds from publication PMC9268102, “Design, Synthesis and Biological Evaluation of 1,3,5-Triazine Derivatives Targeting hA1 and hA3 Adenosine Receptor” (Molecules, 2022).

Each structure is given as a SMILES string. Values joined by “and” are separate entries in the source; they are usually repeats but may differ in a detail not shown here. Equal values may be shown once. Bounds are passed on as bounds.

The target in one assay is T1, hA3 AR (Homo sapiens, UniProt P0DMS8).
T1 sequence (P0DMS8 1-318): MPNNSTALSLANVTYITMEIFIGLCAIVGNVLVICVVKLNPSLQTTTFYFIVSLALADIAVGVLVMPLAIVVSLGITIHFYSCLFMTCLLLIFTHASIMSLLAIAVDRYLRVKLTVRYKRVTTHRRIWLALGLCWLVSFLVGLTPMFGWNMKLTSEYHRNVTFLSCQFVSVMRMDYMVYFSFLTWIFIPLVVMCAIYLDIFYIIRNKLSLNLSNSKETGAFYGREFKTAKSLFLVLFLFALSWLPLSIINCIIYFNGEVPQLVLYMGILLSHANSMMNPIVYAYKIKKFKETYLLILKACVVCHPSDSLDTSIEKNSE
Nature of the assay: Radioligand competition binding assay at hA3 AR. On the set-up: expressed in transfected cells; host or cells: Hela-A3 cell line. Conditions: for Percentage Inhibition (%) at 10 μM, hA3 AR / inhibition at 10 µM: 10 μM compound; for Percentage Inhibition (%) at 10 μM, hA3 AR / inhibition at 10 µM / Ki: [3H]NECA; for inhibition at 10 µM: read-out: Percentage Inhibition (%) at 10 μM, hA3 AR. The protocol: (§1) All the synthesized compounds were screened with radioligand binding assays at hARs. First, the percentage of inhibition was measured by treatment of each hAR subtype with 10 μM of each compound (Table 1).
(§2) hA1, hA2A, and hA3 AR competition binding experiments were carried out in a multiscreen GF/C 96-well plate (Millipore, Madrid, Spain) pretreated with binding buffer (Hepes 20 mM, NaCl 100 mM, MgCl2 10 mM, 2 U/mL adenosine deaminase, pH = 7.4 for hA1 AR; Tris-HCl 50 mM, EDTA 1 mM, MgCl2 10 mM, 2 U/mL adenosine deaminase, pH = 7.4 for hA2A AR; and Tris-HCl 50 mM, EDTA 1 mM, MgCl2 5 mM, 2 U/mL adenosine deaminase, pH = 7.4 for hA3 AR, respectively). In each well was incubated 5 µg of membranes from Euroscreen CHO-A1 cell line, 5µg of membranes from Hela-A2A cell line, or 30µg of membranes from Hela-A3 cell line and prepared in laboratory: 1 nM [^3H]-DPCPX (140 Ci/mmol, 1 mCi/Ml, Perkin Elmer NET974001MC) for hA1 AR; 1 nM [^3H]-ZM241385 (50 Ci/mmol, 1 mCi/mL, ARC-ITISA 0884) for hA2A AR; and 10 nM [^3H]-NECA (29.6 Ci/mmol, 1 mCi/mL, Perkin Elmer NET811250UC) for hA3 AR, respectively; and the compounds studied according to standard protocol. Non-specific binding was determined in the presence of R-PIA 10 µM (Sigma P4532) for hA1 AR; of NECA 50 µM (Sigma E2387) for hA2A AR; and of R-PIA 100 µM (Sigma P4532) for hA3 AR, respectively. The reaction mixture (Vt: 200 µL/well) was incubated at 25 °C for 60 min (hA1 AR), 30min (hA2A AR), or 180min (hA3 AR); whereafter it was filtered and washed four times (hA1 and hA2A AR) or six times (hA3 AR) with 250 μL wash buffer (Hepes 20 mM, NaCl 100 mM, MgCl2 10 mM pH = 7.4, for hA1 AR; Tris-HCl 50 mM, EDTA 1 mM, MgCl2 10 mM, pH = 7.4, for hA2A AR; and Tris-HCl 50mM pH = 7.4, for hA3 AR, respectively) before being measured in a microplate beta scintillation counter (MicrobetaTrilux, PerkinElmer, Madrid, Spain).

The target of a further assay is T2, hA2A AR (Homo sapiens, UniProt P29274).
T2 construct: expressed in transfected cells; host or cells: Hela-A2A cell line
The assay can be described thus: Radioligand competition binding assay at hA2A AR. Conditions: 10 μM compound, [3H]ZM241385, Hela cells; for inhibition at 10 µM: read-out: Percentage Inhibition (%) at 10 μM, hA2A AR. The protocol: as §1, §2
Background: Loss of bound radioactivity is the signal in a displacement assay; it reports binding, not function.

For the next assay, the target named is T3, hA1 AR (Homo sapiens, UniProt P30542).
T3 construct: host or cells: CHO-A1 (CHO cells expressing hA1 AR)
T3 sequence (P30542 1-326): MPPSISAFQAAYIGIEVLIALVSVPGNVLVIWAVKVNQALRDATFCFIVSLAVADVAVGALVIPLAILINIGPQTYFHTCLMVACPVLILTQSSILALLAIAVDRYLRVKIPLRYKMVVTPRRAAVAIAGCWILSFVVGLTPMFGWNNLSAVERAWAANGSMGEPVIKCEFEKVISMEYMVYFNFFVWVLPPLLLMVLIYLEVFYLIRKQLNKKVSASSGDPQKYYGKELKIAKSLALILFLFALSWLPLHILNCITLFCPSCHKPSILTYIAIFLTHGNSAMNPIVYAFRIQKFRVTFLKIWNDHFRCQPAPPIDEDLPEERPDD
Nature of the assay: Radioligand competition binding assay at hA1 AR. The settings on record: for Percentage Inhibition (%) at 10 μM, hA1 AR / inhibition at 10 µM: 10 μM compound; for Percentage Inhibition (%) at 10 μM, hA1 AR / inhibition at 10 µM / Ki: [3H]DPCPX, CHO cells; for inhibition at 10 µM: read-out: Percentage Inhibition (%) at 10 μM, hA1 AR; for Selectivity (hA1 AR:hA3 AR): ratio of Ki hA1 AR to Ki hA3 AR. On the procedure: as §1, §2

The target in another assay is T4, hA2B AR (Homo sapiens, UniProt P29275).
T4 construct: host or cells: HEK-A2B (HEK-293T-A2B) cell line
T4 sequence (P29275 1-332): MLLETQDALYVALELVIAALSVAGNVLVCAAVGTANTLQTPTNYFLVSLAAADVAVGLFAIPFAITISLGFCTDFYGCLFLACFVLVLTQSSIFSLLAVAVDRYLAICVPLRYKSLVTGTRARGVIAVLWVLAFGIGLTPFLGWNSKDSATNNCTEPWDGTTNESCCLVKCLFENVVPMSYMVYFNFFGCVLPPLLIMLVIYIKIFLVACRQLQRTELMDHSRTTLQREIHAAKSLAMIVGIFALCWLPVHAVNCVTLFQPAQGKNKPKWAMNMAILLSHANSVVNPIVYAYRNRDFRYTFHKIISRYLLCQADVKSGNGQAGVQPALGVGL
Nature of the assay: Radioligand competition binding assay at hA2B AR. Conditions: 10 μM compound; [3H]DPCPX; HEK-293 cells; read-out: Percentage Inhibition (%) at 10 μM, hA2B AR. The protocol: as §1
hA2B AR competition binding experiments were carried out in a multiscreen GF/C 96-well plate. In each well was incubated 25 µg of membranes from Euroscreen HEK-A2B cell line and prepared in laboratory, 25 nM [^3H]-DPCPX (140 Ci/mmol, 1 mCi/mL, Perkin Elmer NET974001MC) and compounds studied according to standard protocol. Non-specific binding was determined in the presence of NECA 1000 µM (Sigma E2397). The reaction mixture (Vt: 250 µL/well) was incubated at 25°C for 30 min, 200 µL was transferred to GF/C 96-well plate (Millipore, Madrid, Spain), and pretreated with binding buffer (Tris-HCl 50 Mm, EDTA 1 mM, MgCl2 5 mM, Bacitracin […], adenosine deaminase 2 U/Ml, pH = 6.5). It was then filtered and washed four times with 250 μL wash buffer (Tris-HCl 50 mM, EDTA 1 mM, MgCl2 5 mM, pH = 6.5), before being measured in a microplate beta scintillation counter (MicrobetaTrilux, PerkinElmer, Madrid, Spain).

[1] abbreviates: compared with hydroxyl compound 9a.

T2 sequence (P29274 whole entry): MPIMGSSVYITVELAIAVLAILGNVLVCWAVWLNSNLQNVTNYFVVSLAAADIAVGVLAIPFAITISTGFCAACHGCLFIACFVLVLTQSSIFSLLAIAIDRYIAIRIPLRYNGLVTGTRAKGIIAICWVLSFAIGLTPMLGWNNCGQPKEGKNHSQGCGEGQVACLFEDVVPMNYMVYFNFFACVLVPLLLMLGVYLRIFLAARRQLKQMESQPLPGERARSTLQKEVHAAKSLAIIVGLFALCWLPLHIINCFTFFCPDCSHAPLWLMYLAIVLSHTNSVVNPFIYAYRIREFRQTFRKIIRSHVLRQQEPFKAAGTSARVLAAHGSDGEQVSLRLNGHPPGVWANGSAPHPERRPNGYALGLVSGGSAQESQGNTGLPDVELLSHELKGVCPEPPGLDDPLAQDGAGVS

One may read the inhibition as the change of the read-out against control, counted positive when it falls. A word on the Ki: it is a measure of affinity in units of concentration, obtained from inhibition or displacement. A high value points to lower affinity. As for `COc1cc(Nc2nc(N)nc(-c3ccc(O)cc3)n2)ccc1Cl` [Compound 9c, 4-{4-amino-6-[(4-chloro-3-methoxyphenyl)amino]-1,3,5-triazin-2-yl}phenol], at hA3 AR, the “Percentage Inhibition (%) at 10 μM, hA3 AR” value is on record as 95 ± 1%; the inhibition at 10 µM is over 95%; the affinity, expressed as Ki, was 661 nM. The “Percentage Inhibition (%) at 10 μM, hA2A AR” value at hA2A AR (10 µM) stood at 94 ± 3%. Besides, the inhibition at 10 µM on hA2A AR was over 95%. For the same compound, at hA1 AR, the “Percentage Inhibition (%) at 10 μM, hA1 AR” value was 99 ± 1%; the inhibition at 10 µM is over 95%; the Ki turned out to be 57.9 nM; the “Selectivity (hA1 AR:hA3 AR)” value was determined as 0.0875. Further, the inhibition at 10 µM on hA2B AR is 90 ± 1%.

In the case of `COc1ccc(-c2nc(N)nc(Nc3ccc(OC)c(F)c3)n2)cc1` [Compound 11a, N^2-(3-fluoro-4-methoxyphenyl)-6-(4-methoxyphenyl)-1,3,5-triazine-2,4-diamine], on hA3 AR, the “Percentage Inhibition (%) at 10 μM, hA3 AR” value worked out at 97 ± 1%; the inhibition at 10 µM is over 90%; affinity was put at a Ki of 13.3 nM. For the same compound, the “Improvement of binding affinity at hA3 AR” value at hA3 AR (setting [1]) is on record as about 5 fold. Besides, on hA2A AR, the inhibition at 10 µM came to 83 ± 1%. Moreover, at hA1 AR, the “Percentage Inhibition (%) at 10 μM, hA1 AR” value turned out to be 95 ± 1%; the inhibition at 10 µM is over 90%; the Ki worked out at 78.1 nM; the “Selectivity (hA1 AR:hA3 AR)” value was 5.87. The “Improvement of binding affinity at hA1 AR” value on hA1 AR (setting [1]) is on record as “about 2 fold”. At hA2B AR, the inhibition at 10 µM was 65 ± 2%.

As to `COc1ccc(Nc2nc(N)nc(-c3ccc(F)cc3)n2)cc1F` [Compound 11b, N^2-(3-fluoro-4-methoxyphenyl)-6-(4-fluorophenyl)-1,3,5-triazine-2,4-diamine], at hA3 AR, the “Percentage Inhibition (%) at 10 μM, hA3 AR” value is 95 ± 4%; the inhibition at 10 µM was over 90%; the affinity, expressed as Ki, was 56.6 nM. For the same compound, at hA2A AR, the inhibition at 10 µM was found to be 49 ± 1%. On hA1 AR, the “Percentage Inhibition (%) at 10 μM, hA1 AR” value is recorded as 98 ± 1%; the inhibition at 10 µM was over 90%; the affinity, expressed as Ki, was 98.3 nM; the “Selectivity (hA1 AR:hA3 AR)” value was 1.7 and 1.74. Moreover, on hA2B AR, the inhibition at 10 µM is 56 ± 1%.
